Laboratory results taken from patent US12391679B2, “Benzamide-substituted bicyclic imidazo- and pyrazolo-fused -pyridine, -pyrimide, and -pyridazine compounds for treatment of inflammatory diseases” (ONCO3R Therapeutics BV, priority 2019, dated 2025).

What was measured:
SIK1 [1] = target: T1, SIK1 (Homo sapiens, UniProt P57059); test: 33P radioactive kinase assay, SIK1; format: biochemical
T1 construct: purchased Carna Biosciences 02-131
Experimental: (§1) The principle of the ^33P radioactive kinase assay consists in measuring the incorporated ^33P into the substrate AMARA peptide when phosphorylated by SIK1, SIK2 or SIK3 using [^33P]-g-ATP, which correlates with kinase activity.
(§2) The test compounds are prepared as a serial dilution of 10 point dose responses with 1/5 dilution steps in 100% DMSO starting from 2 mM highest concentration, diluted 1/20 in water and 5 μL is transferred to the assay plates (Greiner, Cat #651201).
(§3) 1% DMSO and 10 μM staurosporine final concentrations are used as negative and positive controls.
(§4) 11 μL of enzyme-substrate mixture is added on the assay plates. The reactions are started by adding 9 μL ATP mixture, consisting of non-labeled and ^33P-labeled ATP, on the assay plates.
(§5) The reactions are stopped by adding 25 μL phosphoric acid (150 mM) to the reactions.
(§6) The completely terminated kinase reactions are transferred using a harvester on pre-wetted UniFilter-96 plates (UniFilter-96 GF/B, PerkinElmer Inc., Cat #6005177).
(§7) After harvesting the kinase reactions, the filter plates are washed 6 times with phosphoric acid (75 mM). The back of the UniFilter-96 plates are sealed and 40 μL MicroScint-20 (PerkinElmer Inc., Cat #6013621) is added to each well. The top of the plates are sealed with TopSeal-A. Read-out is performed with a TopCount instrument (PerkinElmer Inc.).
(§8) Raw data are generated following the read-out performed on the TopCount, plotted to generate dose response curves to calculate percentage inhibition (PIN) and average IC50 for each SIK homologue which are reported in the table below.

SIK2 [2] = target: T2, SIK2 (Homo sapiens, UniProt Q9H0K1); test: 33P radioactive kinase assay, SIK2; format: biochemical; note: AMARA 5 µM, 10 µM ATP
T2 construct: purchased ThermoFisher Scientific PV4792
T2 sequence (Q9H0K1 whole entry): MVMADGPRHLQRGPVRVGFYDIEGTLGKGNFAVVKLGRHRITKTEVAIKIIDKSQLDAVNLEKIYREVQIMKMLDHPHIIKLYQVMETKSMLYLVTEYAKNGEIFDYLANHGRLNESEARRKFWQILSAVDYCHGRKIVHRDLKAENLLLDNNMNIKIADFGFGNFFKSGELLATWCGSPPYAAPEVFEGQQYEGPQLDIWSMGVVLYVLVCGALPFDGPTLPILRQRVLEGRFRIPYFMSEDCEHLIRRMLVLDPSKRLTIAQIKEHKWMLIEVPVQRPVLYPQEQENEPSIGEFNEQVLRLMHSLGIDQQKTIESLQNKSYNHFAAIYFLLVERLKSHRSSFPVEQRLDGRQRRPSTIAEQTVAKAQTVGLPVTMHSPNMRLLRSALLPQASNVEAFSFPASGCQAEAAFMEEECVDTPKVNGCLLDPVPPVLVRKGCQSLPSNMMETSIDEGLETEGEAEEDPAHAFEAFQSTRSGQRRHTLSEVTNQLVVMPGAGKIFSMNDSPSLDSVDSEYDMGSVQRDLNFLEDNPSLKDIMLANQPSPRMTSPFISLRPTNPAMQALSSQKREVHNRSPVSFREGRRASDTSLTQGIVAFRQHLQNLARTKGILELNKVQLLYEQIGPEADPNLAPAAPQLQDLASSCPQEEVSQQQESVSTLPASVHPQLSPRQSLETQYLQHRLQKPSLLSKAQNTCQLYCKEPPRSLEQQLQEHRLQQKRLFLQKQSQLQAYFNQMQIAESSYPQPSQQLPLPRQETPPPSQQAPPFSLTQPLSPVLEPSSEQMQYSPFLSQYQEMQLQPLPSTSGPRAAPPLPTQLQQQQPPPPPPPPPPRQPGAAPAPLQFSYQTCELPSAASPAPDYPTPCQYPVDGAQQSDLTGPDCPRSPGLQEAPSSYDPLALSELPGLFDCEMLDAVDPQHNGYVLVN
Experimental: as §1, §2, §3, §4, §5, §6, §7, §8

SIK3 [3] = target: T3, SIK3 (Homo sapiens, UniProt Q9Y2K2); test: 33P radioactive kinase assay, SIK3; format: biochemical; settings: 33P radioactive assay; AMARA 7 μM; 15 μM ATP; 80 min; average IC50
T3 construct: purchased SignalChem S12-11G-100
T3 sequence (Q9Y2K2 59-365 limits assumed): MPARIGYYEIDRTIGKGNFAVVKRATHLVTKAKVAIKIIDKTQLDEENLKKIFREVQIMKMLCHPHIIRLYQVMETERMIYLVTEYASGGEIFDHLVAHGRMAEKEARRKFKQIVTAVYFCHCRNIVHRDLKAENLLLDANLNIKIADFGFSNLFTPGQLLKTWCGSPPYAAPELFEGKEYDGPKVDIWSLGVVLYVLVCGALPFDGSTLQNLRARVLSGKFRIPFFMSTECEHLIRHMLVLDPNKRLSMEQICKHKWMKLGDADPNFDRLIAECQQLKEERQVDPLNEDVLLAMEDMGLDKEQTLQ
Experimental: as §1, §2, §3, §4, §5, §6, §7, §8

[4] = tested on: LPS triggered IL-10 secretion in monocytes; test: Monocytes assay: LPS-triggered IL-10 (ELISA); format: cell-based, human; settings: Homo sapiens, Monocyte, LPS-triggered IL-10 induction, median maximal fold change vs LPS only, read-out: IL-10 FCmax median
Experimental: This assay evaluates illustrative compounds of the invention for their inhibition of LPS-induced TNFα and LPS triggered IL-10 secretion in monocytes.
PBMCs are isolated from human blood samples (buffycoats). The buffy coat is aseptically transferred into a 50 mL Falcon tube, and diluted 1/2 in PBS. Falcon tubes are filled with 20 mL Lymphoprep™, on top of which 25 mL of the buffy coat is carefully added, tubes are centrifuged for 35 min at 400 g in temperature controlled centrifuge, without brake, at 25° C. PBMCs are aspirated from the white interface layer between sample and Lymphoprep™. PBMCs are washed five times in PBS.
PBMCs are centrifuged at 300×g for 10 min and resuspended at a density of 1.0*10^7 cells/80 μL Miltenyi buffer (PBS, pH 7.4, 1% FBS, 2 mM EDTA).
Starting from this point of the protocol all steps are performed on ice. 20 μL of CD14+ micro-beads are added per 1.0*10^7 cells, the tube is mixed and incubated for 15 min in the fridge at 4° C. Cell suspension volume is adjusted to total volume of 100 mL using Miltenyi buffer, mixed gently and subsequently centrifuged for 10 min at 300×g. Supernatant is discarded and cell pellet is resuspended in 12 mL of Miltenyi buffer.
Four LS columns are placed in the MACS Separator (magnet) from Miltenyi Biotec, and are prewet by rinsing with 3 mL of MACS buffer per column. Three mL of cell suspension is added onto the column (max 1*10^8 of labelled cells/column), and columns are subsequently washed 3 times with 3 mL of Miltenyi buffer.
The columns are removed from the magnets, and 5 mL of Miltenyi buffer are added to the column to flush out the CD14+ fraction by pushing the plunger into the column. The flushed fractions are collected in a fresh 50 mL Falcon and volume is adjusted to 30 mL using Miltenyi buffer, cells are centrifuged for 10 min at 300×g. The obtained cell pellet is resuspended in 10 mL RPMI w/o FBS, and cell density is determined using a hematologic analyser (Sysmex XS-500i).
A compound dilution plate is made in 100% DMSO by 3-fold dilution of 10 mM stock solution. An intermediate dilution plate (10× final concentration) is made by diluting the compound dilution plate 50-fold in RPMI medium.
10 μL of the 10× final concentration compound is added to the cells and incubated for 1 h at 37° C. before addition of trigger. No trigger conditions/trigger conditions are spiked with equal final DMSO concentrations of 0.2% DMSO. 10 μL of 10×LPS (final conc. 200 ng/mL) solution are added to all wells except for the ‘no trigger wells’ where 10 μL medium is added. Supernatant is collected after 4 h of LPS triggering.
A Lumitrac 600 Greiner 384-well plate is coated with 40 μL of capture antibody (final concentration of 1 μg/mL in 1×PBS) and stored overnight at 4° C. The next day the plate is washed three times with PBST (PBS+0.05% Tween20) and once with PBS followed by the addition of 100 μL of blocking buffer (1% BSA-5% Sucrose) and plates are sealed and incubated for at least 4 h at RT. After washing the plate once with PBST and once with PBS, 40 μL of standard or sample are added (IL-10 standard curve is prepared using a 1/2 serial dilution starting from 2000 pg/mL; dilutions are made in dilution buffer (PBS+1% BSA)). […] Plates are washed twice with PBST, and once with PBS, whereafter 35 μL of Strep-HRP conjugate (0.5 μg/mL final concentration diluted in dilution buffer) is added. Plates are incubated in the dark, at RT for at least 45 min but no longer than 1 h. Plates are washed twice with PBST, and once with PBS. Thereafter, 50 μL of luminol substrate is added to each well (prepared according to manufacturer's instructions), and incubated for 5 min at RT protected from light.
To quantify these increases, fold changes (FC) compared to ‘LPS only’ are calculated for each concentration tested and the maximal FC is calculated (IL-10 FCmax): […]

SIK3 [5] = target: T3, SIK3; test: ADP-Glo kinase assay, SIK3; format: biochemical
Method in brief: (§9)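 Each SIK isoform is incubated with substrate and ATP for 2 h at room temperature, after which residual ATP is depleted and the ADP formed is quantified by luminescence.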

SIK2 [6] = target: T2, SIK2; test: ADP-Glo kinase assay, SIK2; format: biochemical
Method in brief: as §9

[7] = tested on: LPS-induced TNFα in monocytes; test: Monocytes assay: LPS-triggered TNFα (ELISA); format: cell-based, human; settings: Homo sapiens, Monocyte, LPS-triggered TNFα inhibition
Method in brief: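 CD14+ monocytes were magnetically isolated from human buffy-coat PBMCs, preincubated with compound 1 h at 37 °C (0.2% DMSO), then stimulated with LPS at 200 ng/mL for 4 h. Supernatant TNFα was measured by luminescent sandwich ELISA; percentage inhibition was calculated against controls for each concentration.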

SIK1 [8] = target: T1, SIK1; test: ADP-Glo kinase assay, SIK1; format: biochemical
Method in brief: as §9

[9] = ADP-Glo, AMARA 45 μM, 5 μM ATP, 120 min, average IC50

T1 sequence (P57059 whole entry): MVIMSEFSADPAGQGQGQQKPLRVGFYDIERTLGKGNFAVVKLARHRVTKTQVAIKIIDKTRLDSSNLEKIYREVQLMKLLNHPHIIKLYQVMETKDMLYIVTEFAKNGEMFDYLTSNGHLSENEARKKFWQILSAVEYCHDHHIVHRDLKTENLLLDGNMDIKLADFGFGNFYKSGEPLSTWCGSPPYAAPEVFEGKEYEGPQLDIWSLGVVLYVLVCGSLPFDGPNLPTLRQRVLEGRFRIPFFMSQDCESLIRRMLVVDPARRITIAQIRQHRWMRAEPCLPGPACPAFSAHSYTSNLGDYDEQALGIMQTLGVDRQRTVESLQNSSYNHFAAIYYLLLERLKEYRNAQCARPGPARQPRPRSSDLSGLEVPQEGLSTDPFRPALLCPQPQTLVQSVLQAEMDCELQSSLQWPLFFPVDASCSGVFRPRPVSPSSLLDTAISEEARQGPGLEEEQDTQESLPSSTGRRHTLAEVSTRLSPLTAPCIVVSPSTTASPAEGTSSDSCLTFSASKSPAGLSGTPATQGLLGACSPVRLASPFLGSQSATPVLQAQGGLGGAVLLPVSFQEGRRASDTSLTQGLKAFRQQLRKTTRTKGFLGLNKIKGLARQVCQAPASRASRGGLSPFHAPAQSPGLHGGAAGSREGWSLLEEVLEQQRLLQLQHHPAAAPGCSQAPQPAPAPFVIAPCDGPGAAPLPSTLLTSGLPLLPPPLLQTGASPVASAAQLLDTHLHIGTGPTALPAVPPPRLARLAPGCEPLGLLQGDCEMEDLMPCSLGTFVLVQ

Row | SMILES | IC50 (SIK1 [1]) | IC50 (SIK2 [2]) | IC50 (SIK3 [3]) | maximal fold induction [4] | IC50 (SIK3 [5]; [9]) | IC50 (SIK2 [6]; [9]) | EC50 [7] | IC50 (SIK1 [8]; [9]) | IC50 (SIK3 [5]) | IC50 (SIK2 [6]) | IC50 (SIK1 [8])
1 | COc1cc(-c2cnc3cc(C(C)(C)C(N)=O)ccn23)cc(OC)c1C(=O)NC1CC1 [Cpd 29, 4-[7-(2-amino-1,1-dimethyl-2-oxo-ethyl)imidazo[1,2-a]pyridin-3-yl]-N-cyclopropyl-2,6-dimethoxy-benzamide] | > 500 nM | > 500 nM | 10 to 100 nM |  |  |  |  |  |  |  | 
2 | COc1cc(-n2cnc3cc(C(C)C#N)ccc32)cc(OC)c1C(=O)NCC(F)(F)F (stereo not shown) [Cpd 15, 4-[5-(1-cyanoethyl)benzimidazol-1-yl]-2,6-dimethoxy-N-(2,2,2-trifluoroethyl)benzamide] | > 500 nM | > 500 nM | > 500 nM |  |  |  |  |  |  |  | 
3 | COc1cc(-n2cnc3cc(C4CCN(CC#N)CC4)ccc32)cc(OC)c1C(=O)NCC(F)(F)F [Cpd 4, 4-[5-[1-(cyanomethyl)-4-piperidyl]benzimidazol-1-yl]-2,6-dimethoxy-N-(2,2,2-trifluoroethyl)benzamide] | > 500 nM | > 500 nM | 100 to 500 nM |  |  |  |  |  |  |  | 
4 | COc1cc(-n2cnc3cc(C4CCCN(C(=O)OC(C)(C)C)C4)ccc32)cc(OC)c1C(=O)NCC(F)(F)F (stereo not shown) [Cpd 7, tert-butyl 3-[1-[3,5-dimethoxy-4-(2,2,2-trifluoroethylcarbamoyl)phenyl]benzimidazol-5-yl]piperidine-1-carboxylate] | > 500 nM | > 500 nM | > 500 nM |  |  |  |  |  |  |  | 
5 | COc1cc(-n2cnc3cc(C4CCCN(C)C4)ccc32)cc(OC)c1C(=O)NCC(F)(F)F (stereo not shown) [Cpd 6, 2,6-dimethoxy-4-[5-(1-methyl-3-piperidyl)benzimidazol-1-yl]-N-(2,2,2-trifluoroethyl)benzamide] | > 500 nM | > 500 nM | 100 to 500 nM |  |  |  |  |  |  |  | 
6 | COc1cc(-n2cnc3cc(C4CCCNC4)ccc32)cc(OC)c1C(=O)NCC(F)(F)F (stereo not shown) [Cpd 8, 2,6-dimethoxy-4-[5-(3-piperidyl)benzimidazol-1-yl]-N-(2,2,2-trifluoroethyl)benzamide] | > 500 nM | > 500 nM | 100 to 500 nM |  |  |  |  |  |  |  | 
7 | COc1cc(-c2cnn3cc(C4COCCO4)ccc23)cc(OC(F)F)c1C(=O)N[C@@H]1C[C@@H]1F (stereo partly drawn) [Cpd 240, 2-(difluoromethoxy)-4-[6-(1,4-dioxan-2-yl)pyrazolo[1,5-a]pyridin-3-yl]-N-[(1R,2S)-2-fluorocyclopropyl]-6-methoxy-benzamide] |  |  |  | 1.5 to 4.5 | 0.01 to 10 nM | 10 to 100 nM | 100 to 1000 nM | 100 to 500 nM |  |  | 
8 | COCC(C)(C)c1ccc2c(-c3cc(OC)c(C(=O)NC4CC4)c(OC(F)F)c3)cnn2c1 [Cpd 238, N-cyclopropyl-2-(difluoromethoxy)-6-methoxy-4-[6-(2-methoxy-1,1-dimethyl-ethyl)pyrazolo[1,5-a]pyridin-3-yl]benzamide] |  |  |  | < 1.5 |  |  | 100 to 1000 nM |  | 10 to 100 nM | > 500 nM | > 500 nM
9 | COc1cc(-c2cnc3cc(C4(O)COC4)ccn23)cc(OC(F)F)c1C(=O)NC1CC1 [Cpd 177, N-cyclopropyl-2-(difluoromethoxy)-4-[7-(3-hydroxyoxetan-3-yl)imidazo[1,2-a]pyridin-3-yl]-6-methoxy-benzamide] |  |  |  | < 1.5 |  |  | 100 to 1000 nM |  | 10 to 100 nM | > 500 nM | > 500 nM
10 | COc1cn2c(-c3cc(OC)c(C(=O)NC4CC4)c(OC(F)F)c3)cnc2cc1C(C)(C)C#N [Cpd 200, 4-[7-(1-cyano-1-methyl-ethyl)-6-methoxy-imidazo[1,2-a]pyridin-3-yl]-N-cyclopropyl-2-(difluoromethoxy)-6-methoxy-benzamide] |  |  |  | < 1.5 |  |  | 100 to 1000 nM |  | 10 to 100 nM | 100 to 500 nM | > 500 nM
11 | COc1cc(-c2cnc3cc(C(C)(C)C#N)ccn23)cc(OC(F)F)c1C(=O)N[C@@H]1C[C@H]1F (racemic) [Cpd 225, 4-[7-(1-cyano-1-methyl-ethyl)imidazo[1,2-a]pyridin-3-yl]-2-(difluoromethoxy)-N-(2-fluorocyclopropyl)-6-methoxy-benzamide] |  |  |  | < 1.5 |  |  | 100 to 1000 nM |  | 0.01 to 10 nM | > 500 nM | > 500 nM
12 | COc1cc(-c2cnc3cc(C(C)(C)F)ccn23)cc(OC(F)F)c1C(=O)NC1CC1 [Cpd 133, N-cyclopropyl-2-(difluoromethoxy)-4-[7-(1-fluoro-1-methyl-ethyl)imidazo[1,2-a]pyridin-3-yl]-6-methoxy-benzamide] |  |  |  | 1.5 to 4.5 |  |  | 100 to 1000 nM |  | 10 to 100 nM | 100 to 500 nM | 100 to 500 nM
13 | COc1cc(-c2cnc3cc(C(C)(O)Cn4ccnc4)ccn23)cc(OC(F)F)c1C(=O)NC1CC1 (stereo not shown) [Cpd 181, N-cyclopropyl-2-(difluoromethoxy)-4-[7-(1-hydroxy-2-imidazol-1-yl-1-methyl-ethyl)imidazo[1,2-a]pyridin-3-yl]-6-methoxy-benzamide] |  |  |  | < 1.5 |  |  | 1000 to 5000 nM |  | 10 to 100 nM | > 500 nM | > 500 nM
14 | COCC(C)(O)c1ccn2c(-c3cc(OC)c(C(=O)NC4CC4)c(OC(F)F)c3)cnc2c1 (stereo not shown) [Cpd 182, N-cyclopropyl-2-(difluoromethoxy)-4-[7-(1-hydroxy-2-methoxy-1-methyl-ethyl)imidazo[1,2-a]pyridin-3-yl]-6-methoxy-benzamide] |  |  |  | < 1.5 |  |  | 100 to 1000 nM |  | 10 to 100 nM | > 500 nM | > 500 nM
